Data from paper PMC9820316, “Novel Arylpiperazine Derivatives of Salicylamide with α1-Adrenolytic Properties Showed Antiarrhythmic and Hypotensive Properties in Rats” (International Journal of Molecular Sciences, 2022).
Marks after values point to notes of the source that are not given here.

Key:
Type in all cases: in vivo, rat
normotensive rats = test: Influence on blood pressure in the normotensive rats; conditions: for DBP—diastolic blood pressure / SBP—systolic blood pressure: mean ± SD
Experimental: The experiment was performed according to the method described earlier. Normotensive Wistar rats were anesthetized with thiopental (75 mg/kg ip). The right carotid artery was cannulated with a polyethylene tube filled with heparin solution, using a Datamax apparatus (Columbus Instruments, Columbus, OH, USA). After 15 min of the stabilization period, the studied compounds were administered iv, and their effect on systolic and diastolic blood pressure was evaluated (Figure 4A).

[1] = tested on: pressor response to methoxamine in rats; test: Influence on blood vasopressor response to methoxamine in rats; conditions: 2.5 mg/kg iv, methoxamine 150 μg/kg before and 5 min after compound
Experimental: The experiment was performed to establish the effect of the studied derivatives on the pressor response to methoxamine (150 µg/kg, iv), according to the methods described previously. Normotensive Wistar rats were anesthetized with thiopental (75 mg/kg ip). The right carotid artery was cannulated with a polyethylene tube filled with heparin solution using a Datamax apparatus (Columbus Instruments, Columbus, OH, USA). After a 15-min stabilization period, the pressor response to methoxamine before (control) and 5 min after the administration of the tested compounds was measured (Figure 4B). The tested compounds were administered at the lowest hypotensive dose.

normal ECG in rats = test: Effect on a normal electrocardiogram in rats; conditions: for HR—heart rate / PQ interval / QRS complex / QTc (Bazzett's formula) / decrease of the heart rate: 5 mg/kg iv; for HR—heart rate / PQ interval / QRS complex / QTc (Bazzett's formula): mean ± SD; for PQ interval / QRS complex / QTc (Bazzett's formula): in ms (unit assumed)
Experimental: The procedure was performed to exclude the negative effects of the tested compounds on the normal ECG, according to the method described earlier. […] Firstly, animals were anesthetized with thiopental (75 mg/kg ip). […] The influence on PQ, QTc interval, QRS complex, and heart rate was evaluated. The Bazzett’s formula: QTc = QT/√RR was used to calculate QTc. All the studied compounds were administered at a dose of 5 mg/kg.

[2] = tested on: calcium chloride-induced arrhythmia model in rats; test: Prophylactic antiarrhythmic activity in calcium chloride-induced arrhythmia; conditions: 5 mg/kg iv 15 min before calcium chloride 140 mg/kg; number of animals with event
Experimental: (§1) The animals were anesthetized with thiopental (75 mg/kg ip). Depending on the model, either adrenaline, aconitine, or calcium chloride was used as an arrhythmogen. Adrenaline and aconitine were administered iv at a dose of 20 µg/kg, whereas calcium chloride was administered at a dose of 140 mg/kg to induce heart rhythm disturbances. The tested compounds were injected iv 15 min before the arrhythmogen. Aspel ASCARD apparatus (standard II lead, with the tape speed 50 mm/s and voltage calibration 1 mV = 1 cm) was used for ECG measurements. […] The ED50 was calculated using the method of Litchfield and Wilcoxon.

[3] = tested on: aconitine-induced arrhythmia model in rats; test: Prophylactic antiarrhythmic activity in aconitine-induced arrhythmia; conditions: 5 mg/kg iv 15 min before aconitine 20 μg/kg; number of animals with event
Experimental: as §1

[4] = tested on: adrenaline-induced arrhythmia model in rats; test: Prophylactic antiarrhythmic activity in adrenaline-induced arrhythmia; conditions: for Blocks / Bradycardia / Extrasystoles / Mortality: number of animals with event
Experimental: as §1

[5] = 1.0 mg/kg iv, 0 min (before administration)
[6] = 2.5 mg/kg iv, 0 min (before administration)
[7] = 0 min (prior to administration)
[8] = 0.1 mg/kg iv 15 min before adrenaline 20 μg/kg
[9] = 0.25 mg/kg iv 15 min before adrenaline 20 μg/kg
[10] = 0.5 mg/kg iv 15 min before adrenaline 20 μg/kg

## COc1ccccc1N1CCN(Cc2cccc(COc3ccccc3C(N)=O)c2)CC1.Cl [JJGW11, 2-[(3-{[4-(2-metoxyphenyl)piperazin-1-ylo]methyl}phenyl)metoxy}benzamide hydrochloride]
Normotensive rats; [5]
  DBP—diastolic blood pressure: 86.8 ± 7.6 mmHg
  SBP—systolic blood pressure: 118.2 ± 9.7 mmHg
Normotensive rats; 1.0 mg/kg iv, 5 min
  DBP—diastolic blood pressure: 81.3 ± 14.4 mmHg
  SBP—systolic blood pressure: 116.2 ± 8.5 mmHg
Normotensive rats; 1.0 mg/kg iv, 10 min
  DBP—diastolic blood pressure: 82.0 ± 10.2 mmHg
  SBP—systolic blood pressure: 113.8 ± 9.2 mmHg
Normotensive rats; 1.0 mg/kg iv, 20 min
  DBP—diastolic blood pressure: 82.3 ± 8.8 mmHg
  SBP—systolic blood pressure: 111.5 ± 10.4 mmHg
Normotensive rats; 1.0 mg/kg iv, 30 min
  DBP—diastolic blood pressure: 83.0 ± 8.2 mmHg
  SBP—systolic blood pressure: 111.0 ± 10.8 mmHg
Normotensive rats; 1.0 mg/kg iv, 40 min
  DBP—diastolic blood pressure: 82.5 ± 8.4 mmHg
  SBP—systolic blood pressure: 110.0 ± 11.5 mmHg
Normotensive rats; 1.0 mg/kg iv, 50 min
  DBP—diastolic blood pressure: 81.7 ± 8.3 mmHg
  SBP—systolic blood pressure: 110.3 ± 10.7 mmHg
Normotensive rats; 1.0 mg/kg iv, 60 min
  DBP—diastolic blood pressure: 81.5 ± 8.4 mmHg
  SBP—systolic blood pressure: 110.8 ± 10.6 mmHg
Normotensive rats; [6]
  DBP—diastolic blood pressure: 88.7 ± 10.4 mmHg
  SBP—systolic blood pressure: 116.7 ± 8.1 mmHg
Normotensive rats; 2.5 mg/kg iv, 60th min after administration
  decrease of the diastolic blood pressure: 18%
Normotensive rats; 2.5 mg/kg iv, 5 min
  DBP—diastolic blood pressure: 84.7 ± 10.0 mmHg
  SBP—systolic blood pressure: 108.5 ± 8.7 ^b mmHg
Normotensive rats; 2.5 mg/kg iv, 10 min
  DBP—diastolic blood pressure: 81.2 ± 8.6 mmHg
  SBP—systolic blood pressure: 103.3 ± 9.5^c mmHg
Normotensive rats; 2.5 mg/kg iv, 20 min
  DBP—diastolic blood pressure: 78.5 ± 10.1 mmHg
  SBP—systolic blood pressure: 102.3 ± 10.0 ^c mmHg
Normotensive rats; 2.5 mg/kg iv, 30 min
  DBP—diastolic blood pressure: 77.3 ± 9.9 mmHg
  SBP—systolic blood pressure: 101.3 ± 9.2 ^b mmHg
Normotensive rats; 2.5 mg/kg iv, 40 min
  DBP—diastolic blood pressure: 79.2 ± 10.5 mmHg
  SBP—systolic blood pressure: 103.0 ± 10.3 ^a mmHg
Normotensive rats; 2.5 mg/kg iv, 50 min
  DBP—diastolic blood pressure: 77.7 ± 12.9 mmHg
  SBP—systolic blood pressure: 103.5 ± 12.9 ^b mmHg
Normotensive rats; 2.5 mg/kg iv, 60 min
  DBP—diastolic blood pressure: 73.0 ± 16.2 ^a mmHg
  SBP—systolic blood pressure: 100.2 ± 15.9 ^b mmHg
Normotensive rats; 2.5 mg/kg iv, between the 5th and 60th min after injection
  decrease of the systolic blood pressure: 7–14%
[1]
  attenuation of the methoxamine pressor response: 99%
Normal ECG in rats; 5 mg/kg iv vs ED50
  dose affecting the heart rate relative to the ED50 value in the adrenaline-induced arrhythmia model: 26 fold
Normal ECG in rats; [7]
  HR—heart rate: 281.3 ± 50.8
  PQ interval: 45.8 ± 7.2
  QRS complex: 38.5 ± 3.6
  QTc (Bazzett's formula): 188.2 ± 12.3
Normal ECG in rats; 10th min after the injection
  decrease of the heart rate: 8%
Normal ECG in rats; 15th min after the injection
  decrease of the heart rate: 10%
Normal ECG in rats; 5 min
  HR—heart rate: 266.5 ± 58.2
  PQ interval: 47.1 ± 5.7
  QRS complex: 41.3 ± 3.0
  QTc (Bazzett's formula): 197.3 ± 18.6
Normal ECG in rats; 10 min
  HR—heart rate: 258.8 ± 55.0
  PQ interval: 47.4 ± 5.0
  QRS complex: 42.4 ± 4.3
  QTc (Bazzett's formula): 193.6 ± 22.0
Normal ECG in rats; 15 min
  HR—heart rate: 252.4 ± 50.3
  PQ interval: 47.6 ± 5.1
  QRS complex: 41.7 ± 5.4
  QTc (Bazzett's formula): 184.1 ± 16.9
[2]
  Blocks: 6/6
  Bradycardia: 6/6
  Extrasystoles: 5/6
  Fibrillations: 6/6
  Mortality: 6/6
[3]
  Blocks: 6/6
  Bradycardia: 6/6
  Extrasystoles: 5/6
  Fibrillations: 4/6
  Mortality: 6/6
[4]; [8]
  Blocks: 4/5
  Bradycardia: 2/5
  Extrasystoles: 4/5
  Mortality: 1/5
[4]; [9]
  Blocks: 6/6
  Bradycardia: 0/6
  Extrasystoles: 6/6
  Mortality: 0/6
[4]; [10]
  Blocks: 1/6
  Bradycardia: 2/6
  Extrasystoles: 3/6
  Mortality: 1/6
[4]; prophylactic, iv 15 min before adrenaline 20 μg/kg, confidence limits in brackets (Litchfield and Wilcoxon)
  ED50: 0.19 (0.08–0.45) mg/kg
